Test results reported in patent US20240245770A1, “COMPOSITIONS AND METHODS FOR TREATING NEUROMUSCULAR DISORDERS” (The Regents of the University of California, priority 2019, published 2024).

How the values were obtained:
[1] = system: Oral squamous carcinoma cells (OSCCs) and Oral squamous stem cell carcinoma (OSCSCs); assay: NAC blocking of CDDP mediated cell death (PI staining, flow cytometry); assay type: cell-based, human; details: OSCC compared with OSCSCs, 24 hours
Procedure: Testing and selection of the best NAC to be used in ALS treatment. […] Afterwards OSCCs and OSCSCs were detached, and the viability of cells was determined after PI staining followed by flow cytometric analysis. In this figure Forward and Side Scatters (Fs/ss) were assessed since decrease in the Fs/ss is seen in cells undergoing cell death.
Testing and selection of the best NAC to be used in ALS treatment. […] Afterwards OSCCs and OSCSCs were detached, and the viability of cells was determined after PI staining followed by flow cytometric analysis. In this figure the percentage of PI stained cells were assessed.

ALS = details: cited from earlier work
[2] = system: Dental Pulp Stromal Cells (DPSCs); assay: NAC blocking of H2O2 mediated cell death in DPSCs; assay type: cell-based, human; details: NAC 20 mM, 24 hours, FIG. 67
Procedure: Testing and selection of the best NAC to be used in ALS treatment. […] Afterwards DPSCs were detached, and the viability of cells was determined after PI staining followed by flow cytometric analysis. In this figure the decrease in FS/ss and the percentage of PI stained cells were assessed.

OSCSCs = assay: NAC blocking of H2O2 mediated cell death in OSCSCs; assay type: cell-based, human; details: NAC 20 mM, 24 hours, FIG. 68

## [NH2][Pt]([NH2])([Cl])[Cl] [CDDP, Cisplatin]
[1]
  cell death induced by CDDP: induces more of the cell death in OSCC than in OSCSCs

## Nc1nc2ccc(OC(F)(F)F)cc2s1 [Riluzole]
ALS
  extension of life: about two to three

## CC(=O)N[C@@H](CS)C(=O)O [NAC-M]
[2]
  H2O2 mediated cell death (Fs/ss and PI positive cells): able to inhibit H2O2 mediated cell death effectively
OSCSCs
  H2O2 mediated cell death (Fs/ss and PI positive cells): able to inhibit H2O2 mediated cell death effectively
